Key:
[1] = cited from earlier work
[2] = Solubility of difluprednate with different surfactants/solubilizers; format: physicochemical
Method: To improve the solubility of difluprednate, different surfactants/solubilizers were investigated to discover suitable solubilizers. Different surfactants/solubilizers such as Poloxamer 188, Poloxamer 407, polysorbate 80, PEG 40 Caster Oil, PEG 60 Caster Oil, PEG 40 Hydrogenated Castor Oil, Polyoxyl 40 Stearate and Soluplus was dissolved in water with different concentrations. Difluprednate was added into the surfactant solutions with the final difluprednate concentration of 0.05%. The solubility of difluprednate was measured. […] Soluplus is a polyethylene glycol, polyvinyl acetate and polyvinylcaprolactame-based graft copolymer (PVAc-PVCap-PEG). It can form nanomicelles in water or other aqueous solutions, and solubilize poorly soluble difluprednate.

CCCC(=O)O[C@]1(C(=O)COC(C)=O)CC[C@H]2[C@@H]3C[C@H](F)C4=CC(=O)C=C[C@]4(C)[C@@]3(F)[C@@H](O)C[C@@]21C [Difluprednate]
solubility in water [1]: practically insoluble in water
solubility of difluprednate ([2]; 5% Polyoxyethylene Castor Oil (RL-40)): > 98%
Solubility % ([2]; Benzyl Benzoate 2% in water, difluprednate 0.05%): 0.37%
Solubility % ([2]; Glyceryl Tricaprylate 0.2% in water, difluprednate 0.05%): 0.84%
Solubility % ([2]; Hypromellose 0.5% in water, difluprednate 0.05%): 17.6%
Solubility % ([2]; Poloxamer188 0.1% in water, difluprednate 0.05%): 3.59%
Solubility % ([2]; Poloxamer 407 0.2% in water, difluprednate 0.05%): 2.20%
Solubility % ([2]; Polyoxyethylene (23) Cetyl Ether 0.2% in water, difluprednate 0.05%): 7.87%
Solubility % ([2]; Polyoxyethylene (23) Cetyl Ether 0.45% in water, difluprednate 0.05%): 15.41%
Solubility % ([2]; Polyoxyethylene (23) Cetyl Ether 1.0% in water, difluprednate 0.05%): 33.70%
Solubility % ([2]; Polyoxyethylene (40) Monostearate 0.5% in water, difluprednate 0.05%): 42.0%
Solubility % ([2]; Polyoxyethylene (40) Stearate 7.0% in water, difluprednate 0.05%): 5.1%
Solubility % ([2]; Polyoxyethylene (60) Castor Oil 5.0% in water, difluprednate 0.05%): 95.3%
solubility of difluprednate ([2]; Polyoxyethylene (60) Castor Oil, at least 4 or 5% needed): > 95%
Solubility % ([2]; Polyoxyethylene Castor Oil (EL) 5.0% in water, difluprednate 0.05%): 93.5%
Solubility % ([2]; Polyoxyethylene Castor Oil (EL-35) 5.0% in water, difluprednate 0.05% (second entry, r27)): 96.3%
solubility of difluprednate ([2]; Polyoxyethylene Castor Oil (EL-35), at least 4 or 5% needed): > 95%
Solubility % ([2]; Polyoxyethylene Castor Oil (EL-40) 5.0% in water, difluprednate 0.05%): >98.0%
Solubility % ([2]; Polyoxyethylene Hydrogenated Castor Oil (RH-40) 0.53% in water, difluprednate 0.05%): 9.7%
Solubility % ([2]; Polyoxyethylene Hydrogenated Castor Oil (RH-40) 1.0% in water, difluprednate 0.05%): 18.6%
Solubility % ([2]; Polyoxyethylene Hydrogenated Castor Oil (RH-40) 2.0% in water, difluprednate 0.05%): 50.0%
Solubility % ([2]; Polyoxyethylene Hydrogenated Castor Oil (RH-40) 3.0% in water, difluprednate 0.05%): 73.1%
Solubility % ([2]; Polyoxyethylene Hydrogenated Castor Oil (RH-40) 4.0% in water, difluprednate 0.05%): 88.1%
Solubility % ([2]; Polyoxyethylene Hydrogenated Castor Oil (RH-40) 5.0% in water, difluprednate 0.05%): 99.5%
Solubility % ([2]; Polyoxyethylene castor oil (EL-35) 5.0% in water, difluprednate 0.05% (first entry, r11)): 82.9%
Solubility % ([2]; Polyoxyl 20 Cetostearyl Ether 1.0% in water, difluprednate 0.05%): 37.2%
Solubility % ([2]; Polyoxyl 20 Cetostearyl Ether 2.0% in water, difluprednate 0.05%): 74.7%
Solubility % ([2]; Polyoxyl 20 Cetostearyl Ether 3.0% in water, difluprednate 0.05%): 79.9%
Solubility % ([2]; Polyoxyl 20 Cetostearyl Ether 4.0% in water, difluprednate 0.05%): 96.9%
Solubility % ([2]; Polyoxyl 20 Cetostearyl Ether 5.0% in water, difluprednate 0.05%): 96.9%
Solubility % ([2]; Polysorbate 80 0.05% in water, difluprednate 0.05%): 1.75%
Solubility % ([2]; Soluplus 0.9% in water, difluprednate 0.05%): 101.9%
Solubility % ([2]; Soluplus 1.2% in water, difluprednate 0.05%): 102.1%
Solubility % ([2]; Soluplus 1.5% in water, difluprednate 0.05%): 102.1%
Solubility % ([2]; Sucrose Fatty Acid Ester 0.2% in water, difluprednate 0.05%): 2.01%
Solubility % ([2]; Sucrose Fatty Acid Ester 1.0% in water, difluprednate 0.05%): 8.36%
Solubility % ([2]; Vitamin E Polyethylene Glycol Succinate 0.5% in water, difluprednate 0.05%): 25.3%

— US20230172946A1, “In-situ Gel Forming Ophthalmic Formulations Containing Difluprednate” (IVIEW Therapeutics, Inc., priority 2019, published 2023)
